In test [1] the test system is SKNAS tumors. The experiment in a line: Tumor xenograft study. Conditions: treatment in vivo for 10-14 days.
The subject of test [2] is H460 tumors. As to the kind of experiment: Tumor xenograft study. Conditions: treatment in vivo for 10-14 days.
In test [3] the test system is MDAH-2774 cells. As to the kind of experiment: Cell Titer Glo proliferation assay. In kind it is cell-based, human. Particulars: MDAH-2774, 72 hours, KRAS mutant. The method, then:
(§1) Cell Lines and Culture. Human cancer cell lines, were obtained from American Type Culture Collection (ATCC, Manassas, Va.), or the following additional indicated sources, and cultured in media as described. […] Cells were maintained at 37° C. in an incubator under an atmosphere containing 5% CO2. The cells were routinely screened for the presence of mycoplasma (MycoAlert, Cambrex Bio Science, Baltimore, Md.). For growth inhibition assays, cells were plated and allowed to proliferate for 24 hours. […] Cell viability was assayed using the Cell Titer-Glo reagent (Promega Corp., Madison, Wis.).
(§2) Proliferation Assay. […] The basis of the assay is a luminescent quantitation of ATP present in a cell culture plate well. In essence, the greater the number of viable cells in the well, the greater the level of ATP present. The assay utilizes a substrate that binds ATP to produce a luminescent signal, which can be read on a luminometer. Unless otherwise noted, the manufacturer's instructions were followed exactly. Briefly, on Day 1, cells were plated in 120 μl of 10% serum-containing growth media at a density of 4000 cells/well in a white polystyrene 96 well assay plate. […] After 72 h incubation with the inhibitor, the cells were assayed. Results were calculated as a fraction of the DMSO controlled cells.
Background: In ATP-based viability assays light output follows the ATP content of the culture.

Test [4] deals with OVCAR5 cells. As to the kind of experiment: Cell Titer Glo proliferation assay. Conditions: OVCAR5, 72 hours, KRAS mutant. In kind it is cell-based, human. The protocol:
as §1, §2

Test [5] concerns BT549. The experiment in a line: Cell Titer Glo proliferation assay, 88 cell line panel. Type of test: cell-based, human. Particulars: BT549 breast cancer, PTEN mutant, 72 hours. The protocol: as §2
(§3) This included cell lines representing ovarian cancer (A2780 and EFO-27), SCCHN (HSC-4), SCLC (NCI-H446), CRC (KM12), lymphoma (MC116), breast cancer (BT549 and HCC70), and prostate cancer (PC3).

In test [6] the test system is PC3. The test is described as above. Conditions: PC3 prostate cancer, PTEN mutant, 72 hours. Type of test: cell-based, human. The method, then:
as §2, §3

Test [7] has as its system MC116. The description is as above. Type of test: cell-based, human. Conditions: MC116 lymphoma, PTEN mutant, 72 hours. The protocol:
as §2, §3

For test [8], the system named is EFO-27. The description is as above. In kind it is cell-based, human. Conditions: EFO-27 ovarian cancer, PTEN mutant, 72 hours. The method, then: as §2, §3
The subject of test [9] is HSC-4. Described as above. In kind it is cell-based, human. Particulars: HSC-4 SCCHN, PTEN mutant, 72 hours. The method, then: as §2, §3
The subject of test [10] is A2780. The test is described as above. In kind it is cell-based, human. Particulars: A2780 ovarian cancer, PTEN mutant, 72 hours. The protocol: as §2, §3
In test [11] the test system is HCC70. The description is as above. Type of test: cell-based, human. Particulars: HCC70 breast cancer, PTEN mutant, 72 hours. The protocol: as §2, §3
Test [12] has as its system KM12. The description is as above. In kind it is cell-based, human. Particulars: KM12 CRC, PTEN mutant, 72 hours. The protocol:
as §2, §3

For test [13], the system named is NCI-H446. The test is described as above. In kind it is cell-based, human. Particulars: NCI-H446 SCLC, PTEN mutant, 72 hours. The method, then:
as §2, §3

For test [14], the system named is broad panel (n=116) of additional RTKs and other protein kinases. Particulars: at 1 μM; cited from earlier work.
In test [15] the test system is MDAH-2774 ovarian tumor cells. The experiment in a line: Caspase 3/7 Glo apoptosis assay. Type of test: cell-based, human. Particulars: with 10 nM pactitaxel. The protocol:
Measurement of apoptosis: Induction of apoptosis as measured by increased Caspase 3/7 activity was determined using the Caspase 3/7 Glo assay (Promega Corporation, Madison, Wis.). Cell lines were seeded at a density of 3000 cells per well in a 96-well plate. 24 hours after plating, cells were dosed with compounds. The signal for Caspase 3/7 Glo was determined 24 hours after dosing. The caspase 3/7 activity was normalized to cell number per well, using a parallel plate treated with Cell Titer Glo (Promega Corporation, Madison, Wis.). Signal for each well was normalized using the following formula: Caspase 3/7 Glo luminescence units/Cell Titer Glo fraction of DMSO control. All graphs were generated using PRISM® software (Graphpad Software, San Diego, Calif.).

With `C[C@]1(O)C[C@@H](c2nc(-c3ccc4ccc(-c5ccccc5)nc4c3)c3c(N)nccn32)C1` [OSI-906, cis-3-[8-amino-1-(2-phenyl-quinolin-7-yl)-imidazo[1,5-a]pyrazin-3-yl]-1-methyl-cyclobutanol], the “% TGI (tumor growth inhibition)” value in [1] is 71%; in test [2] it was less than 30%. In addition, the “EC50, proliferation” value in [3] and in test [4] was “sub-micromolar” each time. Besides, the “sensitivity to OSI-906” value in test [5], in test [6], in test [7], in test [8], in [9] and in test [10] was “insensitive (insensitive (EC50>10 μM))” in each case. The “sensitivity to OSI-906” value in [11], in test [12] and in [13] was “insensitive (insensitive (EC50>10 μM))” each time. Further, the “inhibition of additional kinases” value in test [14] is less than 50%. Moreover, the induction of apoptosis entry in test [15] is “enhances the induction of apoptosis”.
